Experimental data taken from patent US12589111B2, “Pt(IV) chemotherapeutic prodrug and controlled release thereof for treatment of tumors” (PEKING UNIVERSITY, priority 2020, dated 2026).

System: not listed separately
Assay: Release of the corresponding platinum drug of Pt(IV)-(Suc)2 after γ-ray irradiation
Format: physicochemical
Conditions: deoxygenated, 60Co γ-rays; UPLC-MS, 195Pt NMR
Description: 2.6 Detection of the Release of the Corresponding Platinum Drug of Pt(IV)-(Suc)2
Pt(IV)-(Suc)2 was dissolved in 1 mL of deuterium water ([…]), and the mixture was adjusted to a pH of 7 with NaOH. After deoxygenation, the solution was exposed to 40 kGy γ-ray irradiation (^60Co source, 200 Gy/min, 200 min).
Determination of product by UPLC-MS (FIG. 3, b c)
After deoxygenation, the solution was exposed to 1 kGy γ-ray irradiation (^60Co source, 100 Gy/min, 10 min).

| SMILES | product released by γ-ray irradiation |
| --- | --- |
| [NH2][Pt]1([NH2])([O]C(=O)CCC(=O)O)([O]C(=O)CCC(=O)O)[O]C(=O)C2(CCC2)C(=O)[O]1 [carboPt(IV)-(Suc)2] | release the corresponding Pt(II) drugs |
| N.N.O=C(O)CCC(=O)[O][Pt]([Cl])([Cl])[O]C(=O)CCC(=O)O [cisPt(IV)-(Suc)2] | release the corresponding Pt(II) drugs |
| NC1CCCCC1N.O=C(O)CCC(=O)[O][Pt]1([O]C(=O)CCC(=O)O)[O]C(=O)C(=O)[O]1 [oxaliPt(IV)-(Suc)2] | released product was oxaliplatin |

System: not listed separately
Assay: Ligand release of Pt(IV) complex 1 in different solutions after X-ray irradiation
Format: physicochemical
Conditions: 100 μM in complete fetal bovine serum (FBS)
Description: 2.5 Detection of Ligand Release of Pt(IV) Complex 1 in Different Solutions
A 10 mM stock solution of Pt(IV) complex 1 was prepared, and diluted to 100 μM in H2O. PBS, 5 mM Tyr, Trp, DMEM and CM (complete medium), FBS solution. After X-ray irradiation, 200 μL of ACN was added to each solution. The mixture was centrifuged, and the supernatant was then collected. The operation was repeated 2 more times, and the final concentration was ⅛ of the original concentration. Ligand release was detected by UPLC-MS and quantified by a standard curve of coumarin.

| SMILES | reaction yield of ligand release |
| --- | --- |
| CC(=O)[O][Pt]([Cl])([Cl])[O]C(C)=O.N.N [Pt(IV) complex 1] | not much different from that in water |

Same assay, conditions: 100 μM; PBS, 5 mM Tyr, 5 mM Trp, DMEM, CM; X-ray, UPLC-MS

| SMILES | release of axial ligands |
| --- | --- |
| CC(=O)[O][Pt]([Cl])([Cl])[O]C(C)=O.N.N [Pt(IV) complex 1] | achieved in all of the above solutions |

System: not listed separately
Assay: Determination of release efficiency by UPLC-MS after X-ray irradiation
Format: physicochemical
Conditions: 10 μM in pure water, deoxygenated, 60 Gy X-ray (4 Gy/min, 15 min); released divalent platinum drug by UPLC-MS
Description: 2.7 Determination of Release Efficiency by UPLC-MS
Corresponding tetravalent platinum complexes (compounds 1-66) were dissolved in DMSO to obtain tetravalent platinum stock solutions (10 mM), and then diluted to 10 μM with pure water. After deoxygenation, the solution was subjected to 60 Gy X-ray irradiation (4 Gy/min, 15 min). The reaction crude product was analyzed by UPLC-MS, and the released product was determined to be the corresponding divalent platinum drug by UPLC-MS. The concentration of the divalent platinum drug was determined by the external standard curve of the platinum drug, and the release efficiency was calculated.

| SMILES | Release efficiency [%] |
| --- | --- |
| N[C@@H]1CCCC[C@H]1N.O=C(O)CCC(=O)[O][Pt]1([O]C(=O)CCCc2ccc(I)cc2)[O]C(=O)C(=O)[O]1 [Compound 54] | 75.3 |
| N[C@@H]1CCCC[C@H]1N.O=C(O)CCC(=O)[O][Pt]1([O]C(=O)CCC(=O)O)[O]C(=O)C(=O)[O]1 [Compound 53] | 76.7 |
| CC(=O)[O][Pt]([NH2])([NH2])([Cl])([Cl])[O]C(C)=O [Compound 1] | 83.2 |
| CCCCCCCCCCCCCCCCCCNC(=O)[O][Pt]1([O]C(=O)CCC(=O)O)[O]C(=O)C(=O)[O]1.N[C@@H]1CCCC[C@H]1N [Compound 57] | 76.3 |
| CC(=O)[O][Pt]([NH2])([NH2])([Cl])([Cl])[O]C(=O)CCC(=O)O [Compound 8] | 75.5 |
| N.N.O=C(O)CCC(=O)[O][Pt]1([O]C(=O)CCCc2ccc(I)cc2)[O]C(=O)C2(CCC2)C(=O)[O]1 [Compound 32] | 64.6 |
| CCCCCCCCCCCCCCCCNC(=O)[O][Pt]1([O]C(=O)CN(C)C)[O]C(=O)C(=O)[O]1.N[C@@H]1CCCC[C@H]1N [Compound 63] | 75.7 |
| CCCCCCCCCCCCCCCCNC(=O)[O][Pt]1([O]C(=O)CCC(=O)O)[O]C(=O)C(=O)[O]1.N[C@@H]1CCCC[C@H]1N [Compound 56] | 80.2 |
| CCCCCCCCCCCCCCCCCCNC(=O)[O][Pt]1([O]C(=O)CN(C)C)[O]C(=O)C2(CCC2)C(=O)[O]1.N.N [Compound 42] | 66.3 |
| CCCCCCCCCCCCCCCCCC(=O)[O][Pt]1([O]C(=O)CCC(=O)O)[O]C(=O)C(=O)[O]1.N[C@@H]1CCCC[C@H]1N [Compound 59] | 82.0 |
| CCCCCCCCCCCCCCCC(=O)[O][Pt]1([O]C(=O)CCC(=O)O)[O]C(=O)C(=O)[O]1.N[C@@H]1CCCC[C@H]1N [Compound 58] | 81.3 |
| CCCCCCCCCCCCCCCCCC(=O)[O][Pt]1([O]C(=O)CN(C)C)[O]C(=O)C(=O)[O]1.N[C@@H]1CCCC[C@H]1N [Compound 66] | 77.5 |
| CC(=O)[O][Pt]([NH2])([NH2])([Cl])([Cl])[O]C(=O)CCCc1ccc(I)cc1 [Compound 2] | 85.7 |
| [NH2][Pt]([NH2])([Cl])([Cl])([O]C(=O)CCCc1ccc(I)cc1)[O]C(=O)CCC(=O)O [Compound 10] | 76.7 |
| CN(C)CC(=O)[O][Pt]1([O]C(=O)CCCc2ccc(I)cc2)[O]C(=O)C(=O)[O]1.N[C@@H]1CCCC[C@H]1N [Compound 61] | 73.7 |
| CN(C)CC(=O)[O][Pt]([NH2])([NH2])([Cl])([Cl])[O]C(=O)CCCc1ccc(I)cc1 [Compound 17] | 79.6 |
| CCCCCCCCCCCCCCCCCCNC(=O)[O][Pt]([NH2])([NH2])([Cl])([Cl])[O]C(C)=O [Compound 5] | 73.9 |
| CN(C)CC(=O)[O][Pt]1([O]C(=O)CCCCCN2C(=O)C=CC2=O)[O]C(=O)C2(CCC2)C(=O)[O]1.N.N [Compound 40] | 68.9 |
| N[C@@H]1CCCC[C@H]1N.O=C(O)CCC(=O)[O][Pt]1([O]C(=O)CCCCCN2C(=O)C=CC2=O)[O]C(=O)C(=O)[O]1 [Compound 55] | 81.9 |

| SMILES | Release efficiency [%] |
| --- | --- |
| CCCCCCCCCCCCCCCCNC(=O)[O][Pt]([NH2])([NH2])([Cl])([Cl])[O]C(=O)CN(C)C [Compound 19] | 78.5 |
| N.N.O=C(O)CCC(=O)[O][Pt]1([O]C(=O)CCC(=O)O)[O]C(=O)C2(CCC2)C(=O)[O]1 [Compound 31] | 65.9 |
| CCCCCCCCCCCCCCCCCCNC(=O)[O][Pt]1([O]C(=O)CN(C)C)[O]C(=O)C(=O)[O]1.N[C@@H]1CCCC[C@H]1N [Compound 64] | 82.2 |
| CCCCCCCCCCCCCCCCNC(=O)[O][Pt]([NH2])([NH2])([Cl])([Cl])[O]C(C)=O [Compound 4] | 79.5 |
| CN(C)CC(=O)[O][Pt]([NH2])([NH2])([Cl])([Cl])[O]C(=O)CCCCCN1C(=O)C=CC1=O [Compound 18] | 73.5 |
| CC(=O)[O][Pt]([NH2])([NH2])([Cl])([Cl])[O]C(=O)CCCCCN1C(=O)C=CC1=O [Compound 3] | 80.3 |
| CCCCCCCCCCCCCCCCCCNC(=O)[O][Pt]1([O]C(=O)CCC(=O)O)[O]C(=O)C2(CCC2)C(=O)[O]1.N.N [Compound 35] | 73.5 |
| CCCCCCCCCCCCCCCCNC(=O)[O][Pt]1([NH2])([NH2])([O]C(C)=O)[O]C(=O)C2(CCC2)C(=O)[O]1 [Compound 26] | 69.4 |
| [NH2][Pt]([NH2])([Cl])([Cl])([O]C(=O)CCCCCN1C(=O)C=CC1=O)[O]C(=O)CCC(=O)O [Compound 11] | 73.9 |
| CN(C)CC(=O)[O][Pt]1([O]C(=O)CCCCCN2C(=O)C=CC2=O)[O]C(=O)C(=O)[O]1.N[C@@H]1CCCC[C@H]1N [Compound 62] | 74.5 |
| N.N.O=C(O)CCC(=O)[O][Pt]1([O]C(=O)CCCCCN2C(=O)C=CC2=O)[O]C(=O)C2(CCC2)C(=O)[O]1 [Compound 33] | 67.7 |
| CC(=O)[O][Pt]1([O]C(=O)CN(C)C)[O]C(=O)C(=O)[O]1.N[C@@H]1CCCC[C@H]1N [Compound 60] | 81.3 |
| CN(C)CC(=O)[O][Pt]1([O]C(=O)CCCc2ccc(I)cc2)[O]C(=O)C2(CCC2)C(=O)[O]1.N.N [Compound 39] | 71.0 |
| [NH2][Pt]([NH2])([Cl])([Cl])([O]C(=O)CCC(=O)O)[O]C(=O)CCC(=O)O [Compound 9] | 75.6 |
| CCCCCCCCCCCCCCCC(=O)[O][Pt]1([O]C(=O)CN(C)C)[O]C(=O)C(=O)[O]1.N[C@@H]1CCCC[C@H]1N [Compound 65] | 74.6 |
| CCCCCCCCCCCCCCCCCCNC(=O)[O][Pt]([NH2])([NH2])([Cl])([Cl])[O]C(=O)CN(C)C [Compound 20] | 83.7 |
| CC(=O)[O][Pt]([NH2])([NH2])([Cl])([Cl])[O]C(=O)CN(C)C [Compound 16] | 71.9 |
| CCCCCCCCCCCCCCCCNC(=O)[O][Pt]([NH2])([NH2])([Cl])([Cl])[O]C(=O)CCC(=O)O [Compound 12] | 77.4 |
| CCCCCCCCCCCCCCCCCCNC(=O)[O][Pt]([NH2])([NH2])([Cl])([Cl])[O]C(=O)CCC(=O)O [Compound 13] | 82.7 |

System: healthy mice
Assay: not given
Conditions: 3 μmol/kg
Description: In order to find the optimal dosage, we evaluated the effect of different doses of Oxaliplatin and prodrug on the health of healthy mice. In the same dosing way as in the treatment, the mice were dosed every third day, and then the body weight curve was recorded. […] Then ICP-MS was used to detect the concentration of the platinum drug in blood, tumor, liver and kidney respectively.
FIGS. 5 e-h show radiotherapy-driven release of Oxaliplatin for tumor treatment (n=6 mice per group). e, Tumor volume in individual mouse. f, Mean volume of tumors. The prodrug was injected intravenously for a total of 4 injections at a dose of 30 μmol/kg. One hour after intravenous injection, the tumor site in the irradiation group was irradiated with 4 Gy X-rays. Tumor volume in each group was measured every two days for 40 days. g, Survival curves of mice. According to the guidelines of Peking University Animal Ethics Committee, mice were sacrificed when the tumor volume reached 1500 mm^3. h, Body weight curves of mice.

| SMILES | side effects from long-term survival and body weight curves |
| --- | --- |
| O=C1[O][Pt]2([NH][C@@H]3CCCC[C@H]3[NH]2)[O]C1=O [Oxaliplatin] | no apparent side effects |

Same assay, conditions: 3 μmol/kg, dosed every third day

| SMILES | body weight of mice |
| --- | --- |
| O=C1[O][Pt]2([NH][C@@H]3CCCC[C@H]3[NH]2)[O]C1=O [Oxaliplatin] | did not reduce the body weight |

Same assay, conditions: 30 μmol/kg, dosed every third day

| SMILES | body weight of mice |
| --- | --- |
| O=C1[O][Pt]2([NH][C@@H]3CCCC[C@H]3[NH]2)[O]C1=O [Oxaliplatin] | lost severe weight |

Same assay, conditions: more than 10 μmol/kg

| SMILES | side effects (weight loss) |
| --- | --- |
| O=C1[O][Pt]2([NH][C@@H]3CCCC[C@H]3[NH]2)[O]C1=O [Oxaliplatin] | significant side effects |

Same assay, conditions: nude mice, intravenous injection

| SMILES | maximum tolerated dose |
| --- | --- |
| O=C1[O][Pt]2([NH][C@@H]3CCCC[C@H]3[NH]2)[O]C1=O [Oxaliplatin] | about 3 μmol/kg |

System: HCT116, HT29, LoVo and Ls513 (human colorectal cancer cell lines)
Assay: Cytotoxicity to Oxaliplatin-sensitive cell lines
Format: cell-based
Conditions: not given

| SMILES | IC50 |
| --- | --- |
| O=C1[O][Pt]2([NH][C@@H]3CCCC[C@H]3[NH]2)[O]C1=O [Oxaliplatin] | about submicromolar level |
